Drawing on a melting point compilation (Tetko et al.; mined from patent text by program, amines drawn as free bases though some values may be those of a salt), this text covers melting point for 34 compounds.

As usually defined, the melting point is the temperature of the solid-liquid transition.

For the compound `Cc1oc(-c2ccccc2)nc1COc1cc(CO)ccn1`, the melting point was 100 to 101 °C.
The value for `CCCC(O)C1(CCC)c2ccccc2-c2ccccc21` (centres undefined) was 83 to 85 °C; that for `O=[N+]([O-])c1c(Cl)c(Cl)cc2nc(Cl)c(Cl)nc12` was 118 to 120 °C.
As to `O=C(Nn1ccc2ccccc21)C1=CCCN(CCN2CCCCC2)C1`, the melting point stood at 65 °C.
The value for `Clc1cnn(-c2ccc(CBr)c(Cl)c2)c1` was 77 to 78 °C; that for `CCCc1nc2c(N)nc3cc(OCc4c(C)noc4C)ccc3c2s1` was 178 to 180 °C; that for `CC(O)CNC(=O)NC(=O)C(CC1CCCC1)c1ccc(Cl)c(Cl)c1` (centres undefined) was 117 to 120 °C.
Regarding `O=C(OCc1cc(-c2ccc(F)cc2F)ccc1O)c1cc(O)c2c(c1)C(=O)c1cccc(O)c1C2=O`, the melting point fell in the range of 128 to 132 °C.
The value for `CCCOc1cc(CCCOc2nn(Cc3ccccc3)cc2CC(=O)O)n(Cc2ccc(F)cc2F)n1` was 94 to 95 °C; that for `COc1ccc(-c2ccc3c(C(=O)c4ccn5c4C(C)(C)SC5c4cccnc4)c[nH]c3c2)cc1` (centres undefined) was 236 to 239 °C; that for `Cc1cc2c(NCCc3cccc(C(F)(F)F)c3)ncnc2o1` was 119 °C.
The result for `CC(=O)OCC1OC(n2cc(I)c(=O)[nH]c2=O)C(OC(C)=O)C1OC(C)=O` (centres undefined) reads 175 to 179 °C; that for `c1ccc(CN2CCC(Nc3ccc4[nH]ncc4c3)CC2)cc1`, 150 to 152 °C; that for `CCOC(=O)CCCC(=O)c1cn(-c2cccnc2)c2ccccc12`, 95 to 97 °C.
For `Cc1ccc2c(Cl)ccnc2c1N`, the melting point fell in the range of 75 to 77 °C.
The value for `COc1ccc(NC(=O)C2(C(=O)O)CC2)cc1` was 133 to 136 °C; that for `CCCCc1nn(-c2cc([N+](=O)[O-])ccc2Cl)c(=O)[nH]1` was 145 to 147 °C; that for `COc1cc(-c2oc3ccccc3c(=O)c2C(=O)NCCCCN2CCN(c3ccccn3)CC2)cc(OC)c1OC` was 168 to 173 °C.
The result for `CN(C1=NC(=O)C(=O)S1)c1ccc(-c2ncn(-c3ccc(OC(F)(F)F)cc3)n2)cc1` reads 114 to 118 °C; that for `O=C1c2cc(Cl)ccc2-n2cnc(Cl)c2[C@@H]2CCCN12`, 209 to 210 °C.
The value for `CC(C)(C)NC(=O)[C@@H]1C[C@H](Cl)CN1C(=O)[C@@H](O)[C@H](Cc1ccccc1)NC(=O)[C@H](CC(N)=O)NC(=O)OC(C)(C)C` was 126 to 132 °C; that for `CCCCOCCCNC(c1ccccc1)C(O)c1ccccc1` (centres undefined) was 82 to 84 °C.
The compound `Nc1c(C(=O)O)cccc1-c1ccc(CCc2ccc(Cl)c(C(F)(F)F)c2)cc1` displayed a melting point of 150 to 152 °C.
The result for `Cc1c(F)c(N2CCN(C=O)C(C)C2)cc2c1c(=O)c(C=O)cn2C1CC1` (centres undefined) reads 258 to 260 °C.
The result for `CC(=O)Oc1ccc2c(c1)COc1cc3cc(OC(C)=O)ccc3cc1-2` reads 194 to 195 °C; that for `C=CC(=O)CC1CN=C(c2cc3cccc(N(C)S(=O)(=O)c4cccs4)c3[nH]2)S1` (centres undefined), 157 to 158 °C.
The value for `CC(=O)Nc1cccc(Nc2ncc3ccc(-c4cccn4CCC#N)n3n2)c1` was 131 to 139 °C.
As for `O=c1[nH]c2ccccc2n1CCCN1CCN(C(c2ccc(F)cc2)c2ccc(F)cc2)CC1`, the melting point stood at 197 °C.
The result for `O=C(O)CCc1c[nH]c2c(C(=O)c3ccc(Cl)cc3)cccc12` reads 190 to 202 °C; that for `BrCc1ccc(-c2ccc(CBr)cn2)nc1`, 188 °C; that for `CCCCC1(C2CCCC2)Cc2cc(OC)c(Cl)c(Cl)c2C1=O` (centres undefined), 122 to 123 °C.
The value for `Cc1cccc(C(O)C2C(c3ccccc3)CC(=O)N2C)c1` (centres undefined) was 163 to 165 °C; that for `CCSc1ccc2c(c1)C(Cl)Cc1ccc(F)cc1S2` (centres undefined) was 99 °C; that for `CC(C)[C@@H](NS(=O)(=O)N1CCC(Oc2ccc(Cl)cn2)CC1)C(=O)NO` was 97 to 98.4 °C.
